Measured values: US20260200903A1, “PHARMACEUTICAL COMPOSITION FOR AMELIORATING MALIGNANT DISEASES” (KINKI UNIVERSITY, priority 2020, published 2026)

Assays:
Type in all cases: cell-based
[1] = tested on: RPMI8226 cells (myeloma cell line); assay: Cell death inducing effect on RPMI8226 cells, trypan blue staining
Procedure: (§1) RPMI8226 cells (myeloma cell line) were cultured under 5% CO2 at 37° C. The culture medium used RPMI-1640 medium with 100 μg/mL penicillin, 100 U/mL streptomycin and fetal bovine serum. RPMI8226 cells were seeded into 96-well plates and incubated with each concentration of the compounds was added, and cell viability was determined by the trypan blue staining.
(§2) For controls, only 0.5% DMSO (diluted in PBS) used to dissolve the compounds was added. For each concentration, each bar line is indicated by an arrow with the sign “n, a, 1, 2, 3, 4, 5, 6, 7, 8, 9, 10, 11, 12” from left to right. The “1, 3, 5, 7, 9, 11” are omitted from the graph, but the sign “1” shall be indicated by an arrow between the signs “a” and “2”, the sign “3” between the signs “2” and “4”, and other odd numbers shall likewise be indicated by arrows between even numbers before and after.
(§3) The sign “n” is the norathyriol (formula (n)) administration group, the sign “a” is the mangiferin 8a (formula (a)) administration group, the sign “1” is the yk-7 (formula (1)) administration group, the sign “2” is the yk-8-1 (formula (2)) administration group, the sign “3” is the yk-8-3 (formula (3)) administration group, the sign “4” is the M7 (formula (4)) administration group, the sign “5” is the M9 (formula (5)) administration group, the sign “6” is the M11 (formula (6)) administration group, the sign “7” is the M12 (formula (7)) administration group, the sign “8” is the M14 (formula (8)) administration group, the sign “9” is the M15 (formula (9)) administration group, the sign “10” is the M16 (formula (10)) administration group, the sign “11” is the M18 (formula (11)) administration group, the sign “12” is the M19 (formula (12)) administration group, respectively. The IC50 values for each compound is also listed in the upper right corner of the figure.

[2] = tested on: Raji cells (burkitt lymphoma cell line); assay: Cell death inducing effect on Raji cells, trypan blue staining; settings: Raji (Burkkit lymphoma), cell viability
Procedure: as §1, with “Raji” for “RPMI8226”, “(burkitt lymphoma” for “(myeloma”
as §2, §3

[3] = tested on: CCRF-SB cells (acute lymphocytic leukemia cell line); assay: Cell death inducing effect on CCRF-SB cells, trypan blue staining; settings: CCRF-SB (acute lymphoblastic leukemia), cell viability
Procedure: as §1, with “CCRF-SB” for “RPMI8226”, “(acute lymphocytic leukemia” for “(myeloma”
as §2, §3

NF-κB p52 nuclear = assay: Immunoblotting of NF-κB p52 nuclear in KMS-28BM cells; settings: nuclear fraction, 72 h, same concentrations (0.005-100 μM)
Procedure: Immunoblotting was performed on KMS-28BM cells to investigate the inhibitory effect of each compound administration on NIK inhibition and the activation of IKK, NF-κB p52, and NF-κB p65, which are downstream signals of NIK. As a result, inhibition of NIK activation, inhibition of IKK activity, and inhibition of nuclear translocation of NF-κB p52 and NF-κB p65 were observed (FIG. 15 and FIG. 16).
As a control, compounds untreated KMS-28BM cells were seeded in 150 cm^2 flasks and incubated for 72 h at 37° C. and 5% CO2. KMS-28BM cells were seeded into 150 cm^2 flasks and pre-cultured for 24 h. After incubation, KMS-28BM cells were treated with […], 1 μM norathyriol, 0.5 μM M7 (formula (4)), 1 μM M8 (mangiferin 8a: listed in duplicate), 0.2 μM M9 (formula (5)), 5 μM yk-7 (formula (1)), 0.5 μM yk-8-3 (formula (3)) and 100 μM yk-8-1 (formula (2)) at final concentrations, and incubated for 72 h at 37° C. and 5% CO2. In addition, KMS-28BM cells were also treated with 0.5 μM M19 (formula (12)), 0.5 μM M18 (formula (11)), 0.005 μM M16 (formula (10)), […] (formula (9)), 0.005 μM M14 (formula (8)), 0.05 μM M12 (formula (7)) and […] (formula (6)) at the final concentrations, and incubated for 72 h at 37° C. and 5% CO2. Proteins were extracted from these cell suspensions with cell lysate and used as samples.
The nucleus and cytoplasmic substrate were separated from the cells using the ProteoExtract (registered trademark) Subcellular Proteome Extraction Kit from Merck Ltd. to extract the cytoplasmic and nuclear fractions.
After SDS-PAGE, each sample was transferred to a PVDF membrane and examined using anti-phospho-NIK, anti-NIK, anti-phospho-IKK, anti-IKK, anti-P-actin, anti-NF-κB p52 and anti-NF-κB p65 antibody, and anti-Lamin antibody.
The antibody species is indicated in the vertical direction. Specifically, for anti-phospho-NIK antibody, “Phospho-NIK” was used, for anti-NIK antibody, “NIK” was used, for anti-phospho-IKK antibody, “Phospho-IKK” was used, for anti-IKK antibody, “IKK” was used, for anti-p-actin antibody, “p-actin” was used, for anti-NF-κB p52 antibody, “NF-κB p52 nuclear” was used, for anti-NF-κB p65 antibody, “NF-κB p65 nuclear” was used, and for anti-Lamin antibody, “Lamin” was used.

[4] = tested on: RR1 cells (rituximab-resistant burkitt lymphoma cell line); assay: Cell death inducing effect on RR1 cells, trypan blue staining; settings: RR1 (Burkkit lymphoma; rituximab resistance), cell viability
Procedure: Raji cells, a burkitt lymphoma cell line, were modified to be rituximab-resistant and named RR1 cells.
RR1 cells (rituximab-resistant burkitt lymphoma cell line) were cultured under 5% CO2 at 37° C. The culture medium used RPMI-1640 medium with 100 μg/mL penicillin, 100 U/mL streptomycin and fetal bovine serum. RR-1 cells were seeded into 96-well plates and incubated with each concentration of the compounds was added, and cell viability was determined by the trypan blue staining.
as §2, §3

[5] = tested on: KMS-28BM cells (myeloma cell line); assay: Cell death inducing effect on KMS-28BM cells, trypan blue staining; settings: KMS-28BM (myeloma), cell viability
Procedure: as §1, with “KMS-28BM” for “RPMI8226”
as §2, §3

[6] = Homo sapiens, RPMI-8226, cell viability

| Compound | IC50 [1, 6] | IC50 ([2]; Homo sapiens) | IC50 ([3]; Homo sapiens) | NF-κB p52 nuclear (NF-κB p52 nuclear) | IC50 [4] | IC50 [5] | IC50 ([1]; cell viability) | IC50 [2] | IC50 [3] |
| --- | --- | --- | --- | --- | --- | --- | --- | --- | --- |
| CCCCC(=O)OC[C@H]1O[C@@H](c2c(O)cc3oc4cc(O)c(O)cc4c(=O)c3c2O)[C@H](OC(=O)CCCC)[C@@H](OC(=O)CCCC)[C@@H]1OC(=O)CCCC [yk-7, 2′,3′,4′,6′-tetra-O-valerylmangiferin] | 2460 nM | 383 nM | 1840 nM | decreased | 42 nM | 5300 nM | – | – | – |
| CCCCC(=O)OC[C@H]1O[C@@H](c2c(O)cc3oc4cc(O)c(O)cc4c(=O)c3c2OC(=O)CCCC)[C@H](OC(=O)CCCC)[C@@H](OC(=O)CCCC)[C@@H]1OC(=O)CCCC [yk-8-3, 1,2′,3′,4′,6-penta-O-valerylmangiferin] | 2270 nM | 865 nM | 2410 nM | decreased | 72 nM | 570 nM | – | – | – |
| O=c1c2cc(O)c(O)cc2oc2cc(O)cc(O)c12 [norathyriol, reference compound] | 8870 nM | 8600 nM | 12300 nM | decreased | 737 nM | 1500 nM | – | – | – |
| CCCCC(=O)OC[C@H]1O[C@@H](c2c(OC(=O)CCCC)cc3oc4cc(OC(=O)CCCC)c(OC(=O)CCCC)cc4c(=O)c3c2OC(=O)CCCC)[C@H](OC(=O)CCCC)[C@@H](OC(=O)CCCC)[C@@H]1OC(=O)CCCC [yk-8-1, 1,3,2′,3′,4′,6,6′,7-octa-O-valerylmangiferin] | – | – | – | decreased | 21400 nM | > 100000 nM | > 100000 nM | > 100000 nM | > 100000 nM |
| CCCC(=O)OC[C@H]1O[C@@H](c2c(O)cc3oc4cc(O)c(O)cc4c(=O)c3c2O)[C@H](OC(=O)CCC)[C@@H](OC(=O)CCC)[C@@H]1OC(=O)CCC [Compound M14, 2′,3′,4′,6′-tetra-O-butyrylmangiferin] | 121 nM | 85 nM | 287 nM | decreased | 8 nM | 80 nM | – | – | – |
| O=c1c2cc(O)c(O)cc2oc2cc(O)cc(OCCO)c12 [Compound M18, 3,6,7-trihydroxy-1-(2-hydroxyethoxy)-9H-xanthen-9-one] | 6870 nM | 5590 nM | 9180 nM | decreased | 651 nM | 890 nM | – | – | – |
| CCC(=O)OC[C@H]1O[C@@H](c2c(O)cc3oc4cc(O)c(O)cc4c(=O)c3c2O)[C@H](OC(=O)CC)[C@@H](OC(=O)CC)[C@@H]1OC(=O)CC [Compound M9, 2′,3′,4′,6′-tetra-O-propionylmangiferin] | 696 nM | 227 nM | 1620 nM | decreased | 7 nM | 210 nM | – | – | – |
| CC(C)(C)C(=O)OC[C@H]1O[C@@H](c2c(O)cc3oc4cc(O)c(O)cc4c(=O)c3c2O)[C@H](OC(=O)C(C)(C)C)[C@@H](OC(=O)C(C)(C)C)[C@@H]1OC(=O)C(C)(C)C [Compound M15, 2′,3′,4′,6′-tetra-O-pivaloylmangiferin] | 183 nM | 96 nM | 357 nM | decreased | 11 nM | 170 nM | – | – | – |
| CCCCO[C@@H]1[C@@H](OCCCC)[C@H](c2c(O)cc3oc4cc(O)c(O)cc4c(=O)c3c2O)O[C@H](COC(=O)CCC)[C@H]1OC(=O)CCC [Compound M16, 2′,3′-di-O-butyl-4′,6′-di-O-butyrylmangiferin] | 91 nM | 79 nM | 198 nM | decreased | 7 nM | 70 nM | – | – | – |
| 1,2′,3′,4′,6-penta-O-propionylmangiferin [Compound 8a, reference compound] | – | – | – | decreased | 328 nM | 2170 nM | 7090 nM | 4150 nM | 7420 nM |
| CCCC(=O)OC[C@H]1O[C@@H](c2c(O)cc3oc4cc(O)c(O)cc4c(=O)c3c2OC(=O)CCC)[C@H](OC(=O)CCC)[C@@H](OC(=O)CCC)[C@@H]1OC(=O)CCC [Compound M12, 1,2′,3′,4′,6-penta-O-butyrylmangiferin] | 291 nM | 657 nM | 954 nM | decreased | 15 nM | 210 nM | – | – | – |
| C=CCOc1cc(O)cc2oc3cc(O)c(O)cc3c(=O)c12 [Compound M19, 1-allyloxy-3,6,7-trihydroxy-9H-xanthen-9-one] | 9540 nM | 8920 nM | 18200 nM | decreased | 791 nM | 2100 nM | – | – | – |
| CCCC(=O)OC[C@H]1O[C@@H](c2c(OC(=O)CCC)cc3oc4cc(OC(=O)CCC)c(OC(=O)CCC)cc4c(=O)c3c2OC(=O)CCC)[C@H](OC(=O)CCC)[C@@H](OC(=O)CCC)[C@@H]1OC(=O)CCC [Compound M11, 1,3,2′,3′,4′,6,6′,7-octa-O-butyrylmangiferin] | – | – | – | decreased | 828 nM | 1910 nM | 3210 nM | 698 nM | 7820 nM |
| CCC(=O)OC[C@H]1O[C@@H](c2c(OC(=O)CC)cc3oc4cc(OC(=O)CC)c(OC(=O)CC)cc4c(=O)c3c2OC(=O)CC)[C@H](OC(=O)CC)[C@@H](OC(=O)CC)[C@@H]1OC(=O)CC [Compound M7, 1,3,2′,3′,4′,6,6′,7-octa-O-propionylmangiferin] | 6420 nM | 898 nM | 6760 nM | decreased | 99 nM | 770 nM | – | – | – |
